Columns and labels:
Format in all cases: in vivo
Erysiphe graminis = assay: Control of Erysiphe graminis infection on sprayed winter wheat, assessed after 30 days; conditions: spray, average of 4 replicates
Procedure: (§1) Winter wheat was sprayed with cyprodinil, PBO and mixtures of the two. Thirty three days after application the winter wheat was assessed for levels of Leptosphaeria nodorum compared with untreated cereal, whereby the level of control could be calculated. Results (average of 4 replicates) are shown below. In a similar experiment levels of Erysiphe graminis infection were determined after 30 days. Results (average of 4 replicates) are shown below.

[1] = system: Leptosphaeria nodorum and Septoria tritici mixed infection; assay: Control of Leptosphaeria nodorum and Septoria tritici mixed infection on sprayed winter wheat, assessed 23 days after application; conditions: spray, average of 4 replicates
Procedure: as §1, with “experiment,” for “experiment”, “Leptosphaeria nodorum and Septoria tritici mixed” for “Erysiphe graminis”, “assessed 23 days” for “determined”, “application.” for “30 days.”

Elysiphe graminis = assay: Control of Elysiphe graminis infection on sprayed winter wheat, assessed after 14 days; conditions: spray, average of 3 replicates
Procedure: Winter wheat was sprayed with cyprodinil, PBO and mixtures of the two. Thirty three days after application the winter wheat was assessed for levels of Leptosphaeria nodorum compared with untreated cereal, whereby the level of control could be calculated. Results (average of 4 replicates) are shown below. In a similar experiment levels of […] graminis infection were determined after 14 days. Results (average of 3 replicates) are shown below.

Leptosphaeria nodorum = assay: Control of Leptosphaeria nodorum on sprayed winter wheat, assessed 33 days after application; conditions: spray, vs untreated, average of 4 replicates
Procedure: Winter wheat was sprayed with cyprodinil, PBO and mixtures of the two. Thirty three days after application the winter wheat was assessed for levels of Leptosphaeria nodorum compared with untreated cereal, whereby the level of control could be calculated. Results (average of 4 replicates) are shown below.

Row | SMILES | % control (Erysiphe graminis; 300 g ai / ha) [%] | % control ([1]; 300 g ai / ha) [%] | % control (Elysiphe graminis; 300 g ai/ha) [%] | % control (Leptosphaeria nodorum; 300 g ai / ha) [%] | % control (Erysiphe graminis; 600 g ai / ha) [%] | % control ([1]; 600 g ai / ha) [%] | % control (Elysiphe graminis; 150 g ai/ha) [%] | % control (Elysiphe graminis; 600 g ai/ha) [%] | % control (Leptosphaeria nodorum; 600 g ai / ha) [%]
1 | CCCCOCCOCCOCc1cc2c(cc1CCC)OCO2 [PBO, piperonyl butoxide] | 0.0 | 0.0 | 0.0 | 0.0 | – | – | – | – | –
2 | Cc1cc(C2CC2)nc(Nc2ccccc2)n1 [cyprodinil] | – | – | 67 | – | 34.4 | 0.0 | 35 | 98 | 23.1

Source: EP0830813B1, “Fungicidal compositions” (Aventis CropScience UK Limited, priority 1996, dated 1998)
